Legend:
[1] = system: picornaviruses (CVB1, HRV-A2, HRV-A23, EV-68); experiment: Anti-picornavirus cytopathic effect (CPE) reduction assay on HeLa H1 cells; assay type: cell-based; conditions: 48 h, category from averaging EC50 values of four picornaviruses (CVB1, HRV-A2, HRV-A23, EV68), second symbol in parentheses
Method in brief: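 HeLa H1 cells pre-treated 2 h with serial compound dilutions in 2% FBS DMEM, then infected at an MOI giving full CPE in 2 days; after 48 h, viability by CellTiterBlue fluorescence (560/590 nm) normalised to infected and uninfected vehicle controls; EC50 by non-linear regression, averaged over the four viruses.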

PLA2G16 = target: T1, PLA2G16 (Homo sapiens, UniProt P53816); experiment: Enzyme activity assay for PLA2G16 (Red/Green BODIPY PC-A2 fluorescence); assay type: biochemical; conditions: His-tagged PLA2G16, 4 min pre-incubation, compound 2 nM to 50 μM; first symbol in parentheses
T1 construct: Hexa-His (N); made in house; host or cells: E. coli BL21(DE3)
T1 sequence (P53816 1-162): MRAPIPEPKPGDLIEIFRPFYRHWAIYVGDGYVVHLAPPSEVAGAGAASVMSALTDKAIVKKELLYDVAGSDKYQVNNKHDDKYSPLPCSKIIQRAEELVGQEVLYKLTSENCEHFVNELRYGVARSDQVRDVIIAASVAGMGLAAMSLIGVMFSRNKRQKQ
Method in brief: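 N-His human PLA2G16 was expressed in E. coli and Ni-NTA purified. Enzyme in 5 mM glutathione was preincubated 4 min with compound (2 nM–50 μM final), then Red/Green BODIPY PC-A2 in DOPC/DOPG/cholesterol vesicles was added (50 mM Tris pH 8.5, 100 mM NaCl). Fluorescence increase (ex 480/em 530 nm) over 10 min gave activity; IC50 came from nonlinear regression.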

Row | Structure (SMILES) | EC50 [1] | IC50 (PLA2G16)
1 | O=C(NC1CCC1)C(=O)[C@H]1CNC(=O)[C@@H]1c1ccccc1 (racemic) [FP-19, Rac-N-cyclobutyl-2-oxo-2-[(3R,4S)-5-oxo-4-phenylpyrrolidin-3-yl]acetamide] | < 1 µM | < 1 µM
2 | CC1(NC(=O)C(=O)[C@H]2CNC(=O)[C@@H]2c2ccccc2)CC1 (racemic) [FP-20, Rac-N-(1-methylcyclopropyl)-2-oxo-2-[(3R,4S)-5-oxo-4-phenylpyrrolidin-3-yl]acetamide] | 1 to 10 µM | < 1 µM
3 | COc1ccc(CN2C[C@H](C(=O)C(=O)NC3CC3)[C@@H](c3ccccc3)C2=O)cc1 (racemic) [FP-102, Rac-N-cyclopropyl-2-[(3R,4S)-1-[(4-methoxyphenyl)methyl]-5-oxo-4-phenylpyrrolidin-3-yl]-2-oxoacetamide] | < 1 µM | < 1 µM
4 | O=C(NC1CC1)C(=O)[C@H]1CN(c2cncnc2)C(=O)[C@@H]1Cc1ccccc1 (single isomer, unassigned) [FP-89] | < 1 µM | < 1 µM
5 | CCNC(=O)C(=O)[C@H]1CNC(=O)[C@@H]1c1ccccc1 (racemic) [FP-15, Rac-N-ethyl-2-oxo-2-[(3R,4S)-5-oxo-4-phenylpyrrolidin-3-yl]acetamide] | 1 to 10 µM | < 1 µM
6 | CCNC(=O)C(=O)[C@H]1CN(CC2CCOCC2)C(=O)[C@@H]1Cc1ccccc1 (racemic) [FP-33, Rac-2-[(3R,4R)-4-benzyl-1-[(oxan-4-yl)methyl]-5-oxopyrrolidin-3-yl]-N-ethyl-2-oxoacetamide] | < 1 µM | < 1 µM
7 | Cn1ncnc1CN1C[C@H](C(=O)C(=O)NC2CC2)[C@@H](Cc2ccccc2)C1=O (racemic) [FP-42, Rac-2-[(3R,4R)-4-benzyl-1-[(1-methyl-1H-1,2,4-triazol-5-yl)methyl]-5-oxopyrrolidin-3-yl]-N-cyclopropyl-2-oxoacetamide] | 1 to 10 µM | < 1 µM
8 | O=C(NC1CC1)C(=O)[C@H]1CNC(=O)[C@@H]1Cc1ccc(F)cc1 (racemic) [FP-29, Rac-N-cyclopropyl-2-[(3R,4R)-4-[(4-fluorophenyl)methyl]-5-oxopyrrolidin-3-yl]-2-oxoacetamide] | < 1 µM | < 1 µM
9 | O=C(NC1CC1)C(=O)C1CC(=O)N(Cc2ccccc2)C1 (stereo not drawn) [FP-104, 2-(1-Benzyl-5-oxopyrrolidin-3-yl)-N-cyclopropyl-2-oxoacetamide] | 1 to 10 µM | < 1 µM
10 | CC(F)(F)CNC(=O)C(=O)[C@H]1CNC(=O)[C@@H]1c1ccccc1 (racemic) [FP-11, Rac-N-(2,2-difluoropropyl)-2-oxo-2-[(3R,4S)-5-oxo-4-phenylpyrrolidin-3-yl]acetamide] | 1 to 10 µM | < 1 µM
11 | O=C(NCC1CC1)C(=O)[C@H]1CNC(=O)[C@@H]1c1ccc(F)cc1 (racemic) [FP-28, Rac-N-(cyclopropylmethyl)-2-[(3R,4S)-4-(4-fluorophenyl)-5-oxopyrrolidin-3-yl]-2-oxoacetamide] | < 1 µM | < 1 µM
12 | Cc1noc(CN2C[C@H](C(=O)C(=O)NC3CC3)[C@@H](Cc3ccccc3)C2=O)n1 (racemic) [FP-34, Rac-2-[(3R,4R)-4-benzyl-1-[(3-methyl-1,2,4-oxadiazol-5-yl)methyl]-5-oxopyrrolidin-3-yl]-N-cyclopropyl-2-oxoacetamide] | 1 to 10 µM | < 1 µM
13 | CCNC(=O)C(=O)[C@H]1CN(CC(F)F)C(=O)[C@@H]1Cc1ccccc1 (racemic) [FP-50, Rac-2-[(3R,4R)-4-benzyl-1-(2,2-difluoroethyl)-5-oxopyrrolidin-3-yl]-N-ethyl-2-oxoacetamide] | < 1 µM | < 1 µM
14 | CC(C)ONC(=O)C(=O)[C@H]1CNC(=O)[C@@H]1Cc1ccccc1 (racemic) [FP-8, Rac-2-[(3R,4R)-4-benzyl-5-oxopyrrolidin-3-yl]-2-oxo-N-(propan-2-yloxy)acetamide] | 1 to 10 µM | < 1 µM
15 | O=C(NCC1CC1)C(=O)[C@H]1CNC(=O)[C@@H]1c1ccccc1 (single isomer, unassigned) [FP-86] | < 1 µM | < 1 µM
16 | O=C(NCC1CC(F)(F)C1)C(=O)[C@H]1CNC(=O)[C@@H]1c1ccccc1 (racemic) [FP-23, Rac-N-[(3,3-difluorocyclobutyl)methyl]-2-oxo-2-[(3R,4S)-5-oxo-4-phenylpyrrolidin-3-yl]acetamide] | < 1 µM | < 1 µM
17 | CCCCNC(=O)C(=O)[C@H]1CNC(=O)[C@@H]1c1ccccc1 (racemic) [FP-103, Rac-N-butyl-2-oxo-2-[(3R,4S)-5-oxo-4-phenylpyrrolidin-3-yl]acetamide] | < 1 µM | < 1 µM

Row | Structure (SMILES) | EC50 [1] | IC50 (PLA2G16)
18 | Cn1cc(N2C[C@H](C(=O)C(=O)NC3CC3)[C@@H](Cc3ccccc3)C2=O)cn1 (racemic) [FP-75, Rac-2-[(3R,4R)-4-benzyl-1-(1-methyl-1H-pyrazol-4-yl)-5-oxopyrrolidin-3-yl]-N-cyclopropyl-2-oxoacetamide] | < 1 µM | < 1 µM
19 | O=C(NC1CCOCC1)C(=O)[C@H]1CNC(=O)[C@@H]1Cc1ccccc1 (racemic) [FP-7, Rac-2-[(3R,4R)-4-benzyl-5-oxopyrrolidin-3-yl]-N-(oxan-4-yl)-2-oxoacetamide] | 1 to 10 µM | < 1 µM
20 | O=C(NC1CC1)C(=O)[C@H]1CN(c2ccnc(Cl)n2)C(=O)[C@@H]1Cc1ccccc1 (racemic) [FP-60, Rac-2-[(3R,4R)-4-benzyl-1-(2-chloropyrimidin-4-yl)-5-oxopyrrolidin-3-yl]-N-cyclopropyl-2-oxoacetamide] | 1 to 10 µM | < 1 µM
21 | O=C(NCCC1CC1)C(=O)[C@H]1CNC(=O)[C@@H]1c1ccccc1 (racemic) [FP-24, Rac-N-(2-cyclopropylethyl)-2-oxo-2-[(3R,4S)-5-oxo-4-phenylpyrrolidin-3-yl]acetamide] | < 1 µM | < 1 µM
22 | Cn1ncnc1CN1C[C@@H](C(=O)C(=O)NC2CC2)[C@H](Cc2ccccc2)C1=O (single isomer, unassigned) [FP-97] | > 10 µM | 1 to 10 µM
23 | O=C(NC1CC(F)(F)C1)C(=O)[C@H]1CNC(=O)[C@@H]1c1ccccc1 (racemic) [FP-16, Rac-N-(3,3-difluorocyclobutyl)-2-oxo-2-[(3R,4S)-5-oxo-4-phenylpyrrolidin-3-yl]acetamide] | 1 to 10 µM | < 1 µM
24 | O=C(NCC(F)F)C(=O)[C@H]1CNC(=O)[C@@H]1Cc1ccccc1 (racemic) [FP-4, Rac-2-[(3R,4R)-4-benzyl-5-oxopyrrolidin-3-yl]-N-(2,2-difluoroethyl)-2-oxoacetamide] | < 1 µM | < 1 µM
25 | CC(C)CNC(=O)C(=O)[C@H]1CN(CC(=O)N(C)C)C(=O)[C@@H]1Cc1ccccc1 (racemic) [FP-44, Rac-2-[(3R,4R)-3-benzyl-4-{[(2-methylpropyl)carbamoyl]carbonyl}-2-oxopyrrolidin-1-yl]-N,N-dimethylacetamide] | < 1 µM | < 1 µM
26 | O=C(NC1CC1)C(=O)[C@H]1CN(c2cncnc2)C(=O)[C@@H]1c1ccccc1 (racemic) [FP-63, Rac-N-cyclopropyl-2-oxo-2-[(3R,4S)-5-oxo-4-phenyl-1-(pyrimidin-5-yl)pyrrolidin-3-yl]acetamide] | 1 to 10 µM | < 1 µM
27 | O=C(NC1CC1)C(=O)[C@@H]1CN(c2cnccn2)C(=O)[C@H]1Cc1ccccc1 (single isomer, unassigned) [FP-94] | 1 to 10 µM | < 1 µM
28 | O=C(NC1CC1)C(=O)[C@H]1CNC(=O)[C@@H]1Cc1ccccc1 (racemic) [FP-2, Rac-2-[(3R,4R)-4-benzyl-5-oxopyrrolidin-3-yl]-N-cyclopropyl-2-oxoacetamide] | < 1 µM | < 1 µM
29 | N#CCCNC(=O)C(=O)[C@H]1CNC(=O)[C@@H]1Cc1ccccc1 (racemic) [FP-6, Rac-2-[(3R,4R)-4-benzyl-5-oxopyrrolidin-3-yl]-N-(2-cyanoethyl)-2-oxoacetamide] | 1 to 10 µM | < 1 µM
30 | CC(F)(F)CNC(=O)C(=O)[C@@H]1CN(c2cncnc2)C(=O)[C@H]1Cc1ccccc1 (single isomer, unassigned) [FP-96] | 1 to 10 µM | < 1 µM
31 | O=C(NC1CCCC1)C(=O)[C@H]1CNC(=O)[C@@H]1c1ccccc1 (racemic) [FP-79, Rac-N-cyclopentyl-2-oxo-2-[(3R,4S)-5-oxo-4-phenylpyrrolidin-3-yl]acetamide] | < 1 µM | < 1 µM
32 | Cc1cc(CN2C[C@H](C(=O)C(=O)NC3CC3)[C@@H](c3ccccc3)C2=O)no1 (racemic) [FP-100, Rac-N-cyclopropyl-2-[(3R,4S)-1-[(5-methyl-1,2-oxazol-3-yl)methyl]-5-oxo-4-phenylpyrrolidin-3-yl]-2-oxoacetamide] | 1 to 10 µM | < 1 µM
33 | CC(C)CNC(=O)C(=O)[C@H]1CN(CCN2CCCC2=O)C(=O)[C@@H]1Cc1ccccc1 (racemic) [FP-47, Rac-2-[(3R,4R)-4-benzyl-5-oxo-1-[2-(2-oxopyrrolidin-1-yl)ethyl]pyrrolidin-3-yl]-N-(2-methylpropyl)-2-oxoacetamide] | 1 to 10 µM | < 1 µM
